Laboratory results taken from PMC8049364, “Quantification of Macrophage-Driven Inflammation During Myocardial Infarction with ^18F-LW223, a Novel TSPO Radiotracer with Binding Independent of the rs6971 Human Polymorphism” (Journal of Nuclear Medicine, 2021).

Target: T1, TSPO (Rattus norvegicus, UniProt P16257)
T1 construct: Thirty-three adult male Sprague–Dawley rats; from tissue; host or cells: living adult male Sprague-Dawley rats; heart, LV anterior wall, lung and brain VOIs
Experiment: PET/CT imaging and kinetic modelling in rat MI model, day 7
Type: in vivo
Design: k4 (2T analysis), mean / K1 (2T analysis), mean / k2 (2T analysis), mean / k3 (2T analysis), mean: unit not given here
Conditions: for K1 (2T analysis), mean / VT (2T analysis), mean / k2 (2T analysis), mean / k3 (2T analysis), mean / k3/k4 (2T analysis), mean / k4 (2T analysis), mean: MI n = 9
Description: For MI studies, anesthesia was induced and maintained using isoflurane (0.5%–3% in oxygen, 1 L/min) before buprenorphine (0.05 mg/kg; Alstoe Ltd.) was administered preoperatively for analgesia. Tracheal intubation was achieved under direct vision, and ventilation was maintained with a rodent ventilator (model 683 [Harvard Apparatus]; tidal volume, 2.5 cm^3; respiratory rate, 60/min). MI was induced as we have previously described ([18]), and further details can be found in the supplemental materials. Animals were imaged within 1 d of day 7 after MI, referred to as day 7 throughout the article.
Thirty-two PET scans were performed with ^18F-LW223 (17.8 ± 1.5 MBq, intravenous bolus, mean ± SEM). Naïve and MI rat scans were acquired immediately after intravenous bolus injection of ^18F-LW223. […] Dosimetry studies were conducted using mice and 240-min PET scans.
Reconstructed scans were imported into PMOD, version 3.8 (PMOD Technologies). Volumes of interest (VOIs) were manually drawn around the brain, heart, and lung using CT images. To sample the infarct area (or an equivalent area in naïve hearts), averaged PET images (0–120 min) were used to place 3 spheric VOIs at the center of the infarct territory within the ventricular wall (1.5 mm^3). […] Time–activity curves were generated, and SUVs were calculated as concentration in the VOI divided by injected dose divided by animal weight. Kinetic modeling was performed using the 2-tissue-compartment model to estimate the kinetic rate constants K1–k4 and the total volume of distribution (VT) in different tissues. Blood volume fraction (VB) was not modeled in this study. Two-tissue-compartment modeling was selected as the preferred model on the basis of a comparison of goodness and robustness of fitting versus several other models (Supplemental Fig. 3; Supplemental Table 2). The binding potential relative to nondisplaceable volume (BPND) was defined as k3/k4 ([19]). The transfer-corrected BPND, termed BPTC, was formulated as follows:Eq. 1 BPTC=k3/k4÷K1, […]
where k3 is the radiotracer association rate with specific binding, k4 is the dissociation rate constant of target ligand, and K1 is the rate constant for transfer from arterial plasma to tissues. When tissue blood flow is impaired, such as after MI, K1→blood flow, as per the Renkin–Crone equation:Eq. 2 K1=F×E=F (1−e^− PS/F), […]
Invasive Input Function Measurement
Polyethylene catheters (PE50) filled with heparinized saline (20 IU/mL) were inserted into the left femoral artery and vein with the help of a stereomicroscope and securely fastened with ligatures (6-0 silk thread). Catheters were held in place with […]
Rat Myocardial Infarction Procedure
Briefly, the skin was incised at the level of the left third and fourth ribs where the pectoral muscles were divided and retracted. Left lateral thoracotomy was then performed. With minimal handling, the pericardium was ruptured and the heart gently exteriorized from the thorax, and a nonabsorbable 5-0 ligature was placed around the left anterior descending coronary artery just above the bifurcation of the first diagonal and maneuvered back into position. Before wound closure, a drain was inserted to assist with removal of air and fluid from the thorax. Once removed, the wound was then closed in three layers. Animals were recovered and extubated once spontaneous ventilation was established, housed at 30 °C for 24 hours and given sterile sodium chloride 0.9% 0.01 mL/g fluid therapy subcutaneously in addition to another dose of Buprenorphine. After 24 hours, normal housing conditions were resumed.
Radiometabolite Blood and Tissue Processing and Analysis
All blood samples were 1 mL each and manually collected from different animals to generate a population curve, in order to respect total blood volume limits for terminal arterial blood collections in rats. Following blood and tissue collection, all samples were […]

K1 (2T analysis), mean (Brain): 0.17 | VT (2T analysis), mean (Brain): 2.21 | k2 (2T analysis), mean (Brain): 0.19 | k3 (2T analysis), mean (Brain): 0.023 | k3/k4 (2T analysis), mean (Brain): 1.42 | k4 (2T analysis), mean (Brain): 0.02 | K1 (2T analysis), mean (Global Heart): 0.58 | VT (2T analysis), mean (Global Heart): 12.57 | k2 (2T analysis), mean (Global Heart): 0.36 | k3 (2T analysis), mean (Global Heart): 0.04 | k3/k4 (2T analysis), mean (Global Heart): 6.62 | k4 (2T analysis), mean (Global Heart): 0.01 | K1 (2T analysis), mean (LV Anterior Wall): 0.25 | VT (2T analysis), mean (LV Anterior Wall): 13.62 | k2 (2T analysis), mean (LV Anterior Wall): 0.18 | k3 (2T analysis), mean (LV Anterior Wall): 0.025 | k3/k4 (2T analysis), mean (LV Anterior Wall): 7.92 | k4 (2T analysis), mean (LV Anterior Wall): 0.01 | K1 (2T analysis), mean (Lung): 1.08 | VT (2T analysis), mean (Lung): 10.43 | k2 (2T analysis), mean (Lung): 0.39 | k3 (2T analysis), mean (Lung): 0.046 | k3/k4 (2T analysis), mean (Lung): 2.49 | k4 (2T analysis), mean (Lung): 0.02 | BPTC (MI cohort, infarct territory of anterior wall, 7 d after MI): 32.7 ± 5.0 cm^3/mL/min | reduction of K1 in LV anterior wall, MI vs naïve (rat, in vivo): 3.6 fold | reduction of k2 in LV anterior wall, MI vs naïve (rat, in vivo): 1.4 fold
Structure (SMILES): CC[C@@H](C)N(C)C(=O)c1nc2ccccc2c(-c2ccccc2)c1C[18F] [^18F-LW223]
